{"source": "patent US20120082736A1", "about": "“Small-molecule TNF modulator to reduce the side effects of chemotherapy and radiotherapy” (GeneBlue Corporation, priority 2010, published 2012)", "key": {"[1]": {"system": "C57BL/6 mice, liver irradiation", "experiment": "Liver irradiation: serum AST and ALT activities (Examples 5-7)", "type": "in vivo", "protocol": "FIG. 8. Effect of UTL compounds on AST and ALT with and without radiation C57BL/6 male mice were treated with UTL-5b, -5d, and -5g each in 0.3 mL vehicle containing DMSO/(Cremophor:propylene glycol 4:6 v/v)/saline, 5/5/90 v/v by i.p. injection (30 mg/kg) 1 hr prior to liver irradiation with 15 Gy. Serum was obtained at 2 hr after irradiation and assayed for AST and ALT activities. Data are means±standard deviation (S.D.) * indicates p<0.05, n=4.\nMice were treated with various doses of UTL-5g (3.75, 7.5, 15, 30, and 60 mg/kg, i.p.) 1 hr prior to liver radiation with 15 Gy. Serum was obtained at 2 hr after irradiation and assayed for AST (4a) and ALT activities (4b).\nFIG. 11. Radiation dose escalation and radioprotection by UTL-5 g Mice were pre-treated with UTL-5g (60mg/kg, i.p.) at 1 hr prior to radiation dose escalation (0, 5, 15, and 25 Gy). Serum was harvested at 2 hr after injections and was subjected to AST/ALT measurements as described in Methods. Results were compared to control mice received control vehicle. Data are means±standard deviation (* p<0.05, 2-tailed paired t-Test comparing treated and untreated groups, n=4).\nIn a preliminary study, three UTL compounds (5b, 5d and 5g) were examined for their radioprotective effect in C57BL/6 mice. One hr prior to liver irradiation (15 Gy), animals were treated with the test compounds by i.p. injection (30 mg/kg). Two hr later, the animals were sacrificed and serum AST and ALT enzyme activities were determined.\nDuring the preliminary study, it was found unexpectedly that the vehicle used, DMSO/(Cremophor:propylene glycol […])/saline 5:5:90 v/v was associated with some liver toxicity as indicated by the moderate increase of serum AST and ALT activities in animals treated with vehicle alone.\n(§1) Based on the preliminary studies, UTL-5g was selected for dose-dependent radioprotective studies. In this study, animals were treated with increasing doses of UTL-5g (from 0 to 60 mg/kg) one hr prior to liver irradiation (15 Gy). Two hr after irradiation, animals were sacrificed and serum AST/ALT enzyme activities and liver TNF-α levels were determined. […] For animals pre-treated with UTL-5g at 30 mg/kg, AST/ALT activity levels were lowered from 135/29 to 89/22 Unit/L, and those pre-treated with UTL-5g at 60 mg/kg, AST/ALT levels were reduced from 135/29 to 74/19 Unit/L, respectively.\nNext, we investigated the radioprotective effect of UTL-5g with increased irradiation doses. In this study, animals were pre-treated with UTL-5g at 60 mg/kg and randomly divided into 4 groups. One hr later, they were subjected to liver irradiation at 0, 5, 15 and 25 Gy. Consistent with the previous study, pretreatment with UTL-5 g at 60 mg/kg was radioprotective against 15 Gy as evidenced by the reduction of serum AST activity (103.0 vs. 159.8 Unit/L in UTL-5g and in control vehicle groups, respectively) and ALT activity (17.8 vs. 32.3 Unit/L in UTL-5g and in control vehicle groups respectively) (FIG. 11)."}, "BDF1 mice": {"system": "BDF1 mice", "experiment": "Add-on study: does UTL-5g increase platelet count by itself (Example 3)", "type": "in vivo", "protocol": "Gp 1: medium (saline). Gp 2: saline followed by cisplatin (2.5 mg/kg) 30 min later. Gp 3: UTL-5g (15 mg/kg) followed by cisplatin 30 min later. Gp 4: UTL-5g (30 mg/kg) followed by cisplatin (2.5 mg/kg) 30 min later. Gp 5: UTL-5g (60 mg/kg) followed by cisplatin (2.5 mg/kg) 30 min later. Gp 6: amifostine (200 mg/kg) followed by cisplatin (2.5 mg/kg) 30 min later. Gp 7: saline followed by cisplatin (5 mg/kg) 30 min later. Gp 8: UTL-5g (60 mg/kg) followed by medium (saline) 30 min later. Gp 1-Gp 6 were daily ×5, but Gp 7 was by single dose on day 0 only. StDev is shown for each Gp (n=5 for each group except n=4 for Gp 7). * P<0.05, ** p<0.005 vs. medium control by Student's t-t (two-tailed).\nTo further investigate whether UTL-5g by itself would increase platelet count, the following small add-on study was conducted: • Gp 1: medium (saline) followed by medium (saline) 30 min later (same as Gp 1 before) • Gp 2: medium (saline) followed by cisplatin (2.5 mg/kg) 30 min later (same as Gp 2 before) • Gp 5: UTL-5g (60 mg/kg) followed by cisplatin (2.5 mg/kg) 30 min later (Same as Gp 5 before) • Gp 8: UTL-5g alone (60 mg/kg) followed by medium (saline) 30 min later (New Gp)"}, "TNF-α": {"system": "TNF-α", "experiment": "Liver TNF-α levels after liver irradiation (ELISA)", "type": "in vivo, mice", "protocol": "Mice were treated individually with 0.3 mL each of UTL-5g preparations i.p. 1 hr prior to liver irradiation at 15 Gy. Liver TNF-α levels were analyzed by standard ELISA methodology.\nas §1"}}, "note": "Entries after “also recorded” stand apart in the source; their conditions may differ."}
{"compound": "Cc1cc(C(=O)Nc2ccc(Cl)cc2Cl)no1", "note": "[UTL-5g]", "values": [{"measurement": "serum AST and ALT levels induced by irradiation", "setting": "[1]; 30 mg/kg i.p. 1 hr prior to liver irradiation 15 Gy, serum 2 hr after, C57BL/6 mice, preliminary study", "value": "the most effective in lowering both AST and ALT enzyme activities"}, {"measurement": "serum AST/ALT activities, dose dependence", "setting": "[1]; UTL-5g 0 to 60 mg/kg i.p. 1 hr before liver irradiation 15 Gy, serum 2 hr after", "value": "significantly reduced serum AST/ALT activities in a drug dose-dependent manner"}, {"measurement": "serum ALT activity", "setting": "[1]; UTL-5g 30 mg/kg 1 hr before 15 Gy, irradiated vehicle 29 (Example 6)", "value": 22, "unit": "Unit/L"}, {"measurement": "serum AST activity", "setting": "[1]; UTL-5g 30 mg/kg 1 hr before 15 Gy, irradiated vehicle 135 (Example 6)", "value": 89, "unit": "Unit/L"}, {"measurement": "AST and ALT levels", "setting": "[1]; UTL-5g 60 mg/kg 1 hr before 5 Gy", "value": "slightly but not significantly changed"}, {"measurement": "serum ALT activity", "setting": "[1]; UTL-5g 60 mg/kg 1 hr before 15 Gy, control vehicle 32.3 (Example 7)", "value": 17.8, "unit": "Unit/L"}, {"measurement": "serum AST activity", "setting": "[1]; UTL-5g 60 mg/kg 1 hr before 15 Gy, control vehicle 159.8 (Example 7)", "value": 103.0, "unit": "Unit/L"}, {"measurement": "serum ALT activity", "setting": "[1]; UTL-5g 60 mg/kg 1 hr before 15 Gy, irradiated vehicle 29 (Example 6)", "value": 19, "unit": "Unit/L"}, {"measurement": "serum AST activity", "setting": "[1]; UTL-5g 60 mg/kg 1 hr before 15 Gy, irradiated vehicle 135 (Example 6)", "value": 74, "unit": "Unit/L"}, {"measurement": "radioprotection (AST/ALT)", "setting": "[1]; UTL-5g 60 mg/kg 1 hr before 25 Gy", "value": "only moderate protection"}, {"measurement": "AST and ALT enzyme activities without irradiation", "setting": "[1]; UTL-5g 60 mg/kg alone, animals without irradiation", "value": "slightly increased"}, {"measurement": "platelet count", "setting": "BDF1 mice; UTL-5g 60 mg/kg followed 30 min later by cisplatin 2.5 mg/kg or by saline", "value": "significantly increased platelet count"}, {"measurement": "WBC, protective effect", "setting": "BDF1 mice; UTL-5g 60 mg/kg followed by cisplatin 2.5 mg/kg or saline", "value": "no significant protective effect"}, {"measurement": "platelet production, UTL-5g by itself", "setting": "BDF1 mice; UTL-5g alone 60 mg/kg followed by saline, mice not treated by cisplatin", "value": "stimulated the production of platelets; also recorded: increased platelet counts"}, {"measurement": "liver TNF-α levels, reduction", "setting": "TNF-α; UTL-5g 30 mg/kg i.p. 1 hr prior to liver irradiation 15 Gy", "value": 20, "unit": "%"}, {"measurement": "liver TNF-α levels, reduction", "setting": "TNF-α; UTL-5g 60 mg/kg i.p. 1 hr prior to liver irradiation 15 Gy", "value": 29, "unit": "%"}]}
